Earlier results on three compounds are cited in patent EP0176772A1, “Process for sustaining the release of vitamins C and E” (RODISMA Pharmazeutische Produkte GmbH, priority 1984, dated 1986).

Where two headings read alike, the source gives them in different places.

Assay in data set [1]: not given
The source holds these as a separate data set.

For `Cc1c(C)c2c(c(C)c1O)CCC(C)(CCCC(C)CCCC(C)CCCC(C)C)O2` [D-alpha-Tocopherol], the “maximale Plasmaspiegel, time of” value (orale Verabreichung von 600 mg an eine Versuchsperson (Hashim und Schuttringer)) is reported as around 7 Stunden. For the same compound, the “Maximum der Plasma-Tocopherol-Konzentration, time of” value (orale Verabreichung von (Hashim und Schuttringer)) is reported as 7 Stunden.
For the compound `O=C1O[C@H]([C@@H](O)CO)C(O)=C1O` [Vitamin C, Ascorbinsäure], in data set [1] (Einzeldosen bis 180 mg, dosisproportional (Kübler und Gehler)), the Resorption is given as around 70%. For the same compound, the resorbiert is listed as 75% in data set [1] (Einzeldosis von 1 g, 3-Kompartiment-Modell (Hornig und Moser)) and 16% in data set [1] (orale Ascorbinsäurebelastung mit 12 g).
Consider Vitamin E, for which the “Maximum (plasma vitamin E), time of” value (human, in vivo, po) is given as 7 Stunden.
